In US7736625B2, “Light stabilized in vivo stain composition and method of manufacture” (Zila, Inc., priority 2001, dated 2010):

Assay: light stability of thiazine dye solution exposed to ambient incandescent light
Type: physicochemical
Conditions: total metal content less than 0.2 wt. %; initially deep-blue; overnight in the laboratory
Protocol: This example illustrates the light-instability of a TC product with negligible content of metal ions.
A sample of the TC product is prepared in accordance with Example 1 of my U.S. Pat. No. 6,086,852, incorporated herein by reference, and further purified by preparative high performance liquid chromatography. The total metal content of this sample is less than 0.2 wt. %.
An aliquout of this purified TC product sample is deep-blue in color.

## Cc1cc2nc3ccc(=[N+](C)C)cc-3sc2cc1N.[Cl-] [TC product, tolonium chloride]
  appearance of the solution after standing overnight exposed to ambient incandescent light: becomes colorless
